Literature values in patent publication US20050267197A1 (priority 2004, published 2005).

Legend:
[1] = in vivo
[2] = in vivo; remark: listed apart in the source

## CC(C)c1nc(N(C)S(C)(=O)=O)nc(-c2ccc(F)cc2)c1/C=C/[C@@H](O)C[C@@H](O)CC(=O)O [Crestor®, rosuvastatin]
Cited by consumer advocacy group, March 2004
  cases of serious side effects cited: 16 cases

## COCc1c(C(C)C)nc(C(C)C)c(/C=C/[C@@H](O)C[C@@H](O)CC(=O)O)c1-c1ccc(F)cc1 [Baycol®, cervastatin]
At recommended initial dose (0.4 mg/day) as well as highest dose (0.8 mg/day)
  deaths linked to the drug: 31 deaths

## O=C(O)c1cccnc1 [Niacin]
[1]
  patients affected by flushing (redness) of the face and neck: more than three quarters of patients
  patients discontinuing treatment because of adverse effects: more than 40%
[2]
  increase of blood levels of HDL cholesterol: up to 35%
  reduction of total cholesterol: up to 15%
  reduction of triglyceride levels: up to 30%
